Results published in ChEMBL document CHEMBL4507276 (2021).

How the values were obtained:
[1] = molecular target: Cholecystokinin receptor type A (Homo sapiens) (UniProt P32238); assay: CCKA/H Cerep selectivity data (BI); settings: Compound concentration 20.0 uM
[2] = molecular target: Death-associated protein kinase 1 (Homo sapiens) (UniProt P53355); assay: DAPK1 Invitrogen selectivity data (BI); settings: Compound concentration 3.0 uM
[3] = molecular target: Urotensin-2 receptor (Homo sapiens) (UniProt Q9UKP6); assay: UT1/H AG Cerep selectivity data (BI); settings: filed as agonist, Compound concentration 20.0 uM
[4] = molecular target: Ribosomal protein S6 kinase beta-1 (Homo sapiens) (UniProt P23443); assay: RPS6KB1 Invitrogen selectivity data (BI); settings: Compound concentration 3.0 uM
Sequence of Ribosomal protein S6 kinase beta-1 (Homo sapiens) (P23443 whole entry, looked up): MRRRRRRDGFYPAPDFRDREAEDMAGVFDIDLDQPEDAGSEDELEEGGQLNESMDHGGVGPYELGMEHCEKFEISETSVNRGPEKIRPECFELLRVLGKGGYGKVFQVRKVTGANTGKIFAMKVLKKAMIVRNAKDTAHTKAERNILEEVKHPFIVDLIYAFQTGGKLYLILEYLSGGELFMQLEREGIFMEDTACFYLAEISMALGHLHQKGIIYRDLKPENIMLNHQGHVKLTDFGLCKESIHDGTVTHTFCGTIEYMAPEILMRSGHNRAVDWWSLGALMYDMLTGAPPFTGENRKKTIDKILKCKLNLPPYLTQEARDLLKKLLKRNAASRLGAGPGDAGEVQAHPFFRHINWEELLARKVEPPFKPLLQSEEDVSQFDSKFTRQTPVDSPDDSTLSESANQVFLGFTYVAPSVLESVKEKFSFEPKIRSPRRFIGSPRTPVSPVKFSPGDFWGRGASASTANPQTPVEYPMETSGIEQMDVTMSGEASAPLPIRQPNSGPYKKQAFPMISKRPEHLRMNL

[5] = molecular target: Alpha-1A adrenergic receptor (Rattus norvegicus) (UniProt P43140); assay: ALPHA1A/R Eurofins-Panlabs selectivity data (BI); settings: Compound concentration 10.0 uM
[6] = molecular target: T1, Serine/threonine-protein kinase Chk1 (Homo sapiens) (UniProt O14757); assay: CHEK1 Invitrogen selectivity data (BI); settings: Compound concentration 3.0 uM
T1 sequence (whole entry): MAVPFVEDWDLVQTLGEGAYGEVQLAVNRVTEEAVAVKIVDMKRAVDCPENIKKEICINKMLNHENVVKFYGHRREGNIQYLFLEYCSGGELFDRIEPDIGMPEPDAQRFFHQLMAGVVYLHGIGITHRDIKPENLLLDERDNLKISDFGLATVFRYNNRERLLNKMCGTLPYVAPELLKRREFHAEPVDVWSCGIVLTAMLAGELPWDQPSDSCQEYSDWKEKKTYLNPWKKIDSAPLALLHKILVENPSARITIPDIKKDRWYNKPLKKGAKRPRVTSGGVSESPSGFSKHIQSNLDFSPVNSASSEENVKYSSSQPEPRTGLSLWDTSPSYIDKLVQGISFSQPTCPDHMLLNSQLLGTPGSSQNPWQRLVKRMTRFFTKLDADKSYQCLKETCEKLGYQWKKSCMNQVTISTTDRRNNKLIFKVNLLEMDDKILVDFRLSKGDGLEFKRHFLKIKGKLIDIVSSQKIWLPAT

[7] = molecular target: Interleukin-1 receptor type 1 (Mus musculus) (UniProt P13504); assay: IL-1 Eurofins-Panlabs selectivity data (BI); settings: Compound concentration 10.0 uM
[8] = molecular target: T2, D(4) dopamine receptor (Homo sapiens) (UniProt P21917); assay: D4.2/H Eurofins-Panlabs selectivity data (BI); settings: Compound concentration 10.0 uM
T2 sequence (whole entry): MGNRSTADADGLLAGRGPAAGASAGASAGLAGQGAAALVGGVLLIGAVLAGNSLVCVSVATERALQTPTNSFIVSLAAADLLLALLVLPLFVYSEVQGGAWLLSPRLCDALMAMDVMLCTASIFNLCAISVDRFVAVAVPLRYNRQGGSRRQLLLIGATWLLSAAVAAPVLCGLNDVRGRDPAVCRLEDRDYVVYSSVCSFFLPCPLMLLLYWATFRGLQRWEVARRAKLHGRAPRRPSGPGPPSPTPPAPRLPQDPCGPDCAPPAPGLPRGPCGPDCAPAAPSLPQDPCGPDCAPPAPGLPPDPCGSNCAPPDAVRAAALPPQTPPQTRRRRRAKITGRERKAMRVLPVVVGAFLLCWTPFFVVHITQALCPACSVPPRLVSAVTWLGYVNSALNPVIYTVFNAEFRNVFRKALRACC

[9] = molecular target: Catechol O-methyltransferase (Sus scrofa) (UniProt Q99028); assay: CATOMETHTRAN Cerep selectivity data (BI); settings: Compound concentration 20.0 uM
[10] = molecular target: Tyrosine-protein kinase FRK (Homo sapiens) (UniProt P42685); assay: FRK Invitrogen selectivity data (BI); settings: Compound concentration 3.0 uM
[11] = molecular target: Adenosine receptor A2b (Homo sapiens) (UniProt P29275); assay: A2B/H Cerep selectivity data (BI); settings: Compound concentration 20.0 uM
[12] = molecular target: Tyrosine-protein kinase Fyn (Homo sapiens) (UniProt P06241); assay: FYN Invitrogen selectivity data (BI); settings: Compound concentration 3.0 uM
Sequence of Tyrosine-protein kinase Fyn (Homo sapiens) (P06241 2-537 limits assumed): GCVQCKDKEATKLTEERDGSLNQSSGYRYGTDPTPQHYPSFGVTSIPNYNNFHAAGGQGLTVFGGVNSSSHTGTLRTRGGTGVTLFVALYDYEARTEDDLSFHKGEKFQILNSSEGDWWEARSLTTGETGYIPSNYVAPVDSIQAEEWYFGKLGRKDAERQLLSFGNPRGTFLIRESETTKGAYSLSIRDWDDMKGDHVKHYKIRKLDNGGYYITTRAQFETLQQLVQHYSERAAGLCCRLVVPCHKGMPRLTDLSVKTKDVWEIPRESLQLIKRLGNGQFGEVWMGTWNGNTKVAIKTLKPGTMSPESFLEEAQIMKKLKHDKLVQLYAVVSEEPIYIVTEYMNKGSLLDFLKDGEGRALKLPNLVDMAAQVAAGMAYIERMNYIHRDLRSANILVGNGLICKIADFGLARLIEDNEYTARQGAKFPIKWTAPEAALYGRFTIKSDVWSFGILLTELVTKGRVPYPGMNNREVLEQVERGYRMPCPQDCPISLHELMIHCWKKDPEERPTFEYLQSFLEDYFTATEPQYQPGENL

[13] = molecular target: D(2) dopamine receptor (Homo sapiens) (UniProt P14416); assay: D2SH_AGON Cerep selectivity data (BI); settings: filed as agonist, Compound concentration 20.0 uM
[14] = molecular target: 5-hydroxytryptamine receptor 4 (Homo sapiens) (UniProt Q13639); assay: 5HT4EH_ANTAG Cerep selectivity data (BI); settings: filed as antagonist, Compound concentration 20.0 uM
Sequence of 5-hydroxytryptamine receptor 4 (Homo sapiens) (Q13639 whole entry): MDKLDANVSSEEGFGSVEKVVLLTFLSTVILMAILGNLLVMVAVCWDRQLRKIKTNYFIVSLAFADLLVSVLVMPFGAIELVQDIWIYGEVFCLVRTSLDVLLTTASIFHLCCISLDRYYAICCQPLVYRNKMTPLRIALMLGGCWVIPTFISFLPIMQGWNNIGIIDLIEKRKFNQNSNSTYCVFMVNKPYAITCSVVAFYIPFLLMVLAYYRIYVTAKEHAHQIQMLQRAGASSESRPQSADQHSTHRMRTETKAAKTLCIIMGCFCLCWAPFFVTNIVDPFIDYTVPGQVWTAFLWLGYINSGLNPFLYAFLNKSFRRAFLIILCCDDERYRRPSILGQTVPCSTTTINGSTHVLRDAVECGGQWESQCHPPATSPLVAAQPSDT

[15] = molecular target: Platelet-derived growth factor receptor alpha (Homo sapiens) (UniProt P16234); assay: PDGFRA Invitrogen selectivity data (BI); settings: Compound concentration 3.0 uM
Sequence of Platelet-derived growth factor receptor alpha (Homo sapiens) (P16234 whole entry): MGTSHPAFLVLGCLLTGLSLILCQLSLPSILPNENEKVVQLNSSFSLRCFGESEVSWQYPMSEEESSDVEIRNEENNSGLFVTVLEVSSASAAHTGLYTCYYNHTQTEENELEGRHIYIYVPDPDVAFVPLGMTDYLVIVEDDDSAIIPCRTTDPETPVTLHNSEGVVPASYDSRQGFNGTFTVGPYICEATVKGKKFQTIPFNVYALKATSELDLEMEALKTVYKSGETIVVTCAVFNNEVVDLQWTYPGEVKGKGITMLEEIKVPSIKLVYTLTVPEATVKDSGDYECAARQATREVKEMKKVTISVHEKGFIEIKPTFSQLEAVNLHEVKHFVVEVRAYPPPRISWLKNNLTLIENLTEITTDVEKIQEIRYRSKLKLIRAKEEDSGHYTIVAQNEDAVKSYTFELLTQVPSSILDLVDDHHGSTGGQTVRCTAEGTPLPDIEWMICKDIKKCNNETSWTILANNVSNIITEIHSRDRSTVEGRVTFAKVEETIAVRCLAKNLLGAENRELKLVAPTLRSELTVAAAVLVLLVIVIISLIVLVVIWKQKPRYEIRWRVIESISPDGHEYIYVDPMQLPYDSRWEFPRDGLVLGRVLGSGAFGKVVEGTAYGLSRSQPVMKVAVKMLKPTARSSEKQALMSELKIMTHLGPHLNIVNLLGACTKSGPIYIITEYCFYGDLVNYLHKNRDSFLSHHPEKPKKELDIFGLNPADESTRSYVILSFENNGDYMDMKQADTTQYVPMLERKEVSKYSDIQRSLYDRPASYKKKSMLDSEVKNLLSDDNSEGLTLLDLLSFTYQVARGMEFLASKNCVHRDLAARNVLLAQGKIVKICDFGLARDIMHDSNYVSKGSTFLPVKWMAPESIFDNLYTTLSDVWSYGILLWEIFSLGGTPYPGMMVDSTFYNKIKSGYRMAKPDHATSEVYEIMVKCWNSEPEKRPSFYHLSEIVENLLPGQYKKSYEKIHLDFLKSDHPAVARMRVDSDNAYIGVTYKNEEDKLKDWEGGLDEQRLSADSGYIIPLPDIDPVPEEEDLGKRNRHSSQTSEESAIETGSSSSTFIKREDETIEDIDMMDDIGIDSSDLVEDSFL

[16] = molecular target: Sodium-dependent dopamine transporter (Homo sapiens, UniProt Q01959); assay: DATRANS/H Eurofins-Panlabs selectivity data (BI); settings: Compound concentration 10.0 uM
Sequence of Sodium-dependent dopamine transporter (Q01959 whole entry): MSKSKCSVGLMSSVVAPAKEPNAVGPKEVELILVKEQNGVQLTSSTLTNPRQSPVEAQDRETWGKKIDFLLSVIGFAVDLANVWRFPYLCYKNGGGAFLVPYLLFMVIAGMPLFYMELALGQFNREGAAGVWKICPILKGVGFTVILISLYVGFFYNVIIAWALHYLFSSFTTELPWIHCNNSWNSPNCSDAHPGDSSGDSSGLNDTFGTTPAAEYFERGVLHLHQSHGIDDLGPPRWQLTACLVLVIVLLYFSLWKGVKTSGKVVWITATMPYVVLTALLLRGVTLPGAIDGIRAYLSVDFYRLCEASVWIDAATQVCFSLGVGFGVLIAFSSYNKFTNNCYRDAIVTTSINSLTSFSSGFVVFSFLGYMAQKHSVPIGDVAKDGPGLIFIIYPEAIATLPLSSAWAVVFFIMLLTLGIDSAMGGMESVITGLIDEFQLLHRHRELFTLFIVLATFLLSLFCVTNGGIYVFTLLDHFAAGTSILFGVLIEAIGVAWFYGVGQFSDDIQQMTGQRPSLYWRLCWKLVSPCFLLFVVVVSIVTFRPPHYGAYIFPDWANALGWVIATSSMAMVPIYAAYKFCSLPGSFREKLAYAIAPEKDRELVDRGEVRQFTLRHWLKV

[17] = molecular target: AMP-activated protein kinase (AMPK) alpha-1/beta-1/gamma-1 (Homo sapiens) (UniProt P54619+Q9Y478+Q13131); assay: AMPK A1B1G1 Invitrogen selectivity data (BI); assay type: protein-complex assay; settings: Compound concentration 3.0 uM
[18] = molecular target: Serine/threonine-protein kinase WNK2 (Homo sapiens) (UniProt Q9Y3S1); assay: WNK2 Invitrogen selectivity data (BI); settings: Compound concentration 3.0 uM
[19] = molecular target: Leukotriene B4 receptor 1 (Homo sapiens) (UniProt Q15722); assay: BLT1/H Cerep selectivity data (BI); settings: Compound concentration 20.0 uM
Sequence of Leukotriene B4 receptor 1 (Homo sapiens) (Q15722 whole entry): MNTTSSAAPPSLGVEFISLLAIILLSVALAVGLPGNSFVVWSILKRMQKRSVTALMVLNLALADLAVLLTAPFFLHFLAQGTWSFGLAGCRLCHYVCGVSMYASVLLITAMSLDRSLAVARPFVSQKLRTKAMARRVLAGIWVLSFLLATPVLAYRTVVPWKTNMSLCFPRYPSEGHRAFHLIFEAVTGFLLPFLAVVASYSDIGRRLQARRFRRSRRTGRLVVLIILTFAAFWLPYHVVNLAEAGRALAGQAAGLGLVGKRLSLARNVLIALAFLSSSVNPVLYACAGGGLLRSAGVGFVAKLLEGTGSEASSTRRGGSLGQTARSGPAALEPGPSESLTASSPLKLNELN

[20] = molecular target: T3, Muscarinic acetylcholine receptor M1 (Homo sapiens) (UniProt P11229); settings: Compound concentration 10.0 uM
T3 sequence (whole entry): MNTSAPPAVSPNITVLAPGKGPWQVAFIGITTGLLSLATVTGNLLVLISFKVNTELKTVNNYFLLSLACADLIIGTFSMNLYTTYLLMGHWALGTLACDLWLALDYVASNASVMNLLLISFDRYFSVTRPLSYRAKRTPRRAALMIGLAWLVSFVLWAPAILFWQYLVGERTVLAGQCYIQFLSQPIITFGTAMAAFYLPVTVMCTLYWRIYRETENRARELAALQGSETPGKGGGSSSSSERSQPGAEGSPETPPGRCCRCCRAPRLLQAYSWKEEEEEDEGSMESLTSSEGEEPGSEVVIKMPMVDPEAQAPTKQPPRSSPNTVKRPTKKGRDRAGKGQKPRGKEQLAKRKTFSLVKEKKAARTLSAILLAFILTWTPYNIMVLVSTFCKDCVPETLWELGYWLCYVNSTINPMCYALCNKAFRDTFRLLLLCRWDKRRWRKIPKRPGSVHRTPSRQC

[21] = molecular target: 5-hydroxytryptamine receptor 6 (Homo sapiens) (UniProt P50406); assay: 5HT6/H Cerep selectivity data (BI); settings: Compound concentration 20.0 uM
[22] = molecular target: Kappa-type opioid receptor (Rattus norvegicus) (UniProt P34975); assay: KAPPA/R Cerep selectivity data (BI); settings: Compound concentration 20.0 uM
[23] = molecular target: 5-hydroxytryptamine receptor 2B (Homo sapiens) (UniProt P41595); assay: 5HT2B/H AG Cerep selectivity data (BI); settings: filed as agonist, Compound concentration 20.0 uM
[24] = molecular target: Angiotensin-converting enzyme (Homo sapiens) (UniProt P12821); assay: ACE(HU) Cerep selectivity data (BI); settings: Compound concentration 20.0 uM
[25] = molecular target: Hepatocyte growth factor receptor (Homo sapiens) (UniProt P08581); assay: MET Invitrogen selectivity data (BI); settings: Compound concentration 3.0 uM
[26] = molecular target: Endothelin receptor type B (Homo sapiens) (UniProt P24530); assay: ETB/H Cerep selectivity data (BI); settings: Compound concentration 20.0 uM
[27] = molecular target: Phosphatidylinositol 3-kinase catalytic subunit type 3 (Homo sapiens) (UniProt Q8NEB9); assay: PIK3C3 Invitrogen selectivity data (BI); settings: Compound concentration 3.0 uM

Sequence of Death-associated protein kinase 1 (Homo sapiens) (P53355 whole entry, looked up): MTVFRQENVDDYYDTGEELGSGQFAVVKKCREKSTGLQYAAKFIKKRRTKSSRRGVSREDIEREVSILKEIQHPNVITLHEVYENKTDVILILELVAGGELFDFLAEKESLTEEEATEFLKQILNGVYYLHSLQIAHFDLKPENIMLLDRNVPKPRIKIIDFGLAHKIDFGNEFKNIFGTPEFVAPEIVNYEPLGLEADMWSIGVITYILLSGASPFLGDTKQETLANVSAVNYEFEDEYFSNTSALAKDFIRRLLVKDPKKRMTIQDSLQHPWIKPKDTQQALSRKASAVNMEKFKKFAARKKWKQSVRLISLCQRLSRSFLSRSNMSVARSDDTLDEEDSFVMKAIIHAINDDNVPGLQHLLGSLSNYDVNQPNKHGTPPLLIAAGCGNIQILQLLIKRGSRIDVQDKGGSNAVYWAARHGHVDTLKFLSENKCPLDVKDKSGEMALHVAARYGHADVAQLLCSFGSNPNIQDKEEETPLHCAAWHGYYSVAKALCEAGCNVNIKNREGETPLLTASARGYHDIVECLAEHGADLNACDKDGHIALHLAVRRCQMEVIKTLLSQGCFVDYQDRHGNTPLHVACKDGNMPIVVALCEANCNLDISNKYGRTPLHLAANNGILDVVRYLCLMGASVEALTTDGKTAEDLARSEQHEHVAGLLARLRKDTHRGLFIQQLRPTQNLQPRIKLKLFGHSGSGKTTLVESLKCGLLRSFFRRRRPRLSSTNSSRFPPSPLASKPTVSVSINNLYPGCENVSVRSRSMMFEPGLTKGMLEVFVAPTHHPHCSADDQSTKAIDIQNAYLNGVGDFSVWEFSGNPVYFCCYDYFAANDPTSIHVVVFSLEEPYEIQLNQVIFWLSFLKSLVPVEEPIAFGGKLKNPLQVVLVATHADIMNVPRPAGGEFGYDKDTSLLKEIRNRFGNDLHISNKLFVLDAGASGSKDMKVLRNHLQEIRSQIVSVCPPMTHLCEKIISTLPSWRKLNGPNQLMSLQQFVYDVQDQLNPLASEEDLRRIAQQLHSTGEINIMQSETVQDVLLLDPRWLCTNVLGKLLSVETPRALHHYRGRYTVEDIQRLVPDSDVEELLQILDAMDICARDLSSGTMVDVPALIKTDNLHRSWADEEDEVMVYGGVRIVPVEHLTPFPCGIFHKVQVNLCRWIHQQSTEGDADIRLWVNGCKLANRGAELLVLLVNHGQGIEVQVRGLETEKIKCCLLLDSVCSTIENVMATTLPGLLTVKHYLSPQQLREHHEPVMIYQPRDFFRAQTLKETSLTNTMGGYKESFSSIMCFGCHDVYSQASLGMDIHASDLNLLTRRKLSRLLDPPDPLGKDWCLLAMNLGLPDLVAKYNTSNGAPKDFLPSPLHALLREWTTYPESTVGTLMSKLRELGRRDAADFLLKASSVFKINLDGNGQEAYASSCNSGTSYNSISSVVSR

CN(C)C(=O)Cn1cc(-c2nc([C@@](C)(c3ccc(-c4cnc(N)nc4)cc3)C3CC3)no2)cn1 [BI 665915]
inactive: residual activity [1] 113% | residual activity [2] 99.5% | residual activity [3] 99% | residual activity [4] 97.5% | residual activity [5] 100% | residual activity [6] 96% | residual activity [7] 99% | residual activity [8] 98% | residual activity [9] 99% | residual activity [10] 94.5% | residual activity [11] 83% | residual activity [12] 96.5% | residual activity [13] 95% | residual activity [14] 111% | residual activity [15] 86% | residual activity [16] 95% | residual activity [17] 104% | residual activity [18] 96% | residual activity [19] 100% | inhibition [20] -4.93% | residual activity [21] 95% | residual activity [22] 91% | residual activity [23] 103% | residual activity [24] 127% | residual activity [25] 97% | residual activity [26] 109% | residual activity [27] 94.5%
